Literature values in patent US6605304B1, “Silicate-containing powders providing controlled, sustained gas release” (Bernard Technologies, Inc., priority 1998, dated 2003).

Assays:
[1] = test system: mice
[2] = test system: mold spores, bacteria and other microbiological contaminants

Structure (SMILES): [O][Cl+][O-] [chlorine dioxide]
- chromosomal aberrations or micronuclei in the bone marrow ([1]; mice, subchronic and acute oral administration): failed to induce any chromosomal aberrations or increased numbers of micronuclei
- concentration that penetrates and destroys contaminants [2]: below one

Structure (SMILES): OCl [hypochlorite]
- mutagenic potential ([1]; mouse, in vivo, po): weak positive effect
